Patent US20230167088A1, “1-PYRAZINYLPYRAZOLYL-3-OXYALKYL ACIDS AND THEIR DERIVATIVES, AND THEIR USE FOR CONTROL OF UNDESIRED PLANT GROWTH” (BAYER AKTIENGESELLSCHAFT, priority 2020, published 2023)

Key:
ECHCG = assay: Herbicidal post-emergence action 1a (greenhouse pots, visual rating); type: in vivo, Echinochloa crus-galli; details: Dosage 320 g/ha; rated visually about 3 weeks after treatment; 100% = plants have died, 0% = like control plants
Summary of the method: (§1)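 Weeds and crops sown in sandy loam in greenhouse pots were sprayed post-emergence at the one-leaf stage (2–3 weeks after sowing) with WP or EC formulations plus 0.5% additive at 600 l/ha water, 320 and/or 80 g/ha. About 3 weeks later damage was rated visually against untreated controls (0% = no effect, 100% = dead).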

LOLRI = assay: Herbicidal pre-emergence action 2a (greenhouse pots, visual scoring); type: in vivo, Lolium rigidum; details: dosage 320 g/ha, visual scoring after about 3 weeks vs untreated controls
Summary of the method: (§2)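 Sow, cover with soil, spray soil surface (WP or EC in water, 0.5% additive, 600 l/ha; 320 and/or 80 g/ha), grow in greenhouse ~3 weeks, score visually in % against untreated controls.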

harmful plants = assay: Herbicidal pre-emergence action 2a, summary across species; type: in vivo; details: Tables B1 to B15 (320 g/ha and/or 80 g/ha)
Text: a) Seeds of monocotyledonous and dicotyledonous weed plants and crop plants are placed in plastic or organic plant pots and covered with soil. The compounds of the invention, formulated in the form of wettable powders (WP) or as emulsion concentrates (EC), are then applied onto the surface of the covering soil as aqueous suspension or emulsion with addition of 0.5% additive at a water application rate of 600 1/ha (converted). After the treatment, the pots are placed in a greenhouse and kept under good growth conditions for the trial plants. After about 3 weeks, the effect of the preparations is scored visually in comparison with untreated controls as percentages. For example, 100% activity=the plants have died, 0% activity=like control plants.
Tables B1 to B15 below show the effects of selected compounds of the general formula (I) according to Tables 1 and 2 on various harmful plants and an application rate corresponding to 320 g/ha and/or 80 g/ha, which were obtained by the experimental procedure mentioned above.
For example, compound nos. I-07, I-08, I-11, I-12, I-13, I-16, I-17, I-20, I-36, I-37, I-39, I-45, I-46, I-48, I-52 and I-53 in the pre-emergence method have very good action (80% to 100% herbicidal activity) against harmful plants such as Alopecurus myosuroides, Amaranthus retroflexus, Digitaria sanguinalis, Lolium rigidum, Polygonum convolvulus, Setaria viridis, Veronica persica and Viola tricolor at an application rate of 0.32 kg of active substance per hectare.

MATIN = assay: Herbicidal post-emergence action 1b (twin sowing, 1280 g/ha); type: in vivo, Matricaria inodora; details: dosage 1280 g/ha, visual rating about 3 weeks after treatment
Summary of the method: (§3)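 Twin-sown weeds in sandy loam, greenhouse-grown 2–3 weeks, sprayed post-emergence at one-leaf stage with WP/EC formulations plus 0.5% additive at 600 L/ha water. Damage rated visually about 3 weeks later versus untreated controls (100% = plants dead, 0% = like control).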

AMARE = assay: Herbicidal pre-emergence action 2b (doubly sown, 1280 g/ha); type: in vivo, Amaranthus retroflexus; details: doubly sown pots, dosage 1280 g/ha, visual scoring after about 3 weeks
Summary of the method: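 Pots of sandy loam doubly sown with one monocot and one dicot weed species, covered, then soil surface sprayed pre-emergence with WP or EC formulations plus 0.5% additive at 600 l/ha water. Greenhouse-grown about 3 weeks; activity scored visually as % versus untreated controls (100% = dead).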

DIGSA = assay: Herbicidal pre-emergence action 2a (greenhouse pots, visual scoring); type: in vivo, Digitaria sanguinalis; details: dosage 320 g/ha, visual scoring after about 3 weeks
Summary of the method: as §2

VIOTR = assay: as above; type: in vivo, Viola tricolor; details: dosage 320 g/ha, visual scoring after about 3 weeks vs untreated controls
Summary of the method: as §2

ABUTH = assay: Herbicidal post-emergence action 1a (greenhouse pots, visual rating); type: in vivo, Abutilon theophrasti; details: visual rating about 3 weeks after treatment
Summary of the method: as §1

POAAN = assay: Herbicidal post-emergence action 1b (twin sowing, 1280 g/ha); type: in vivo, Poa annua; details: dosage 1280 g/ha, visual rating about 3 weeks after treatment
Summary of the method: as §3

SETVI = assay: Herbicidal post-emergence action 1a (greenhouse pots, visual rating); type: in vivo, Setaria viridis; details: rated visually about 3 weeks after treatment, 100% = plants have died, 0% = like control plants
Summary of the method: as §1

| SMILES | Post-emergence action against ECHCG in % (ECHCG) [%] | Pre-emergence action against LOLRI in % (LOLRI) [%] | herbicidal efficacy against harmful plants in the case of pre-emergence treatment (in words) (harmful plants) | Post-emergence action at 1280 g/ha against MATIN in % (MATIN) [%] | Pre-emergence action at 1280 g/ha against AMARE in % (AMARE) [%] | Pre-emergence action against DIGSA in % (DIGSA) [%] | Pre-emergence action against VIOTR in % (VIOTR) [%] | Post-emergence action against ABUTH in % (ABUTH; dosage 320 g/ha) [%] | Post-emergence action at 1280 g/ha against POAAN in % (POAAN) [%] | Post-emergence action against SETVI in % (SETVI; Dosage 320 g/ha) [%] | Post-emergence action against SETVI in % (SETVI; Dosage 80 g/ha) [%] | Post-emergence action against ABUTH in % (ABUTH; dosage 80 g/ha) [%] |
| --- | --- | --- | --- | --- | --- | --- | --- | --- | --- | --- | --- | --- |
| CCOC(=O)COc1nn(-c2cnccn2)c(-c2ccc(F)nc2)c1Br [Example I-52, ethyl {[4-bromo-5-(6-fluoropyridin-3-yl)-1-(pyrazin-2-yl)-1H-pyrazol-3-yl]oxy}acetate] | 80 | 100 | good herbicidal efficacy | 90 | 90 | 100 | 90 | 80 | – | – | – | – |
| COC(=O)C(C)Oc1nn(-c2cnccn2)c(-c2ccnc(F)c2)c1Br (racemic) [Example I-10] | – | 100 | – | – | 100 | 100 | 80 | – | 100 | 80 | – | – |
| COC(=O)C(C)Oc1nn(-c2cnccn2)c(-c2ccc(F)c(F)c2)c1C#N (racemic) [Example I-22] | – | 100 | good herbicidal efficacy | 90 | 100 | 100 | 90 | – | 100 | 80 | 80 | – |
| COC(=O)[C@@H](C)Oc1nn(-c2cnccn2)c(-c2ccc(F)c(F)c2)c1Br [Example I-45] | 80 | 90 | good herbicidal efficacy | – | 100 | 100 | 100 | 80 | 100 | 80 | – | – |
| COC(=O)[C@@H](C)Oc1nn(-c2cnccn2)c(-c2cncc(F)c2)c1C#N [Example I-40] | – | 90 | – | 100 | 100 | 100 | 90 | 80 | 100 | 90 | – | 80 |
| COC(=O)COc1nn(-c2cnccn2)c(-c2ccc(F)nc2)c1Br [Example I-11] | 80 | 100 | good herbicidal efficacy | – | 100 | 100 | 100 | 80 | 100 | 90 | – | – |
